Experimental findings from patent US20160166560A1, “Urea Compounds and Their Use as FAAH Enzyme Inhibitors” (BIAL-PORTELA & Cª, S.A., priority 2013, published 2016) are described below.

In series [1] the test system is CYPs. The experiment in a line: CYPs metabolic stability assay in HLM (human liver microsomes). It counts as in vitro ADME. The settings on record: HLM 1 mg/ml protein, compound 5 μM, 60 min, 37° C.; for Control (% remain): absence of NADPH; for CYP+ (% remain): with NADPH 1 mM. The procedure:
Stability of the test compounds was performed in HLM (human liver microsomes) in the presence and in the absence of NADPH.
The stability was measured using the incubation mixture (100 μl total volume) contained 1 mg/ml total protein, MgCl2 5 mM and 50 mM K-phosphate buffer. Samples were incubated in the presence and in the absence of NADPH 1 mM. Reactions were pre-incubated 5 min and the reaction initiated with the compound under test (at a concentration of 5 μM). Samples were incubated for 60 min in a shaking water bath at 37° C. The reaction was stopped by adding 100 μl of acetonitrile. Samples were then centrifuged, filtered and supematant injected in HLPC-MSD. Test compounds were dissolved in DMSO and the final concentration of DMSO in the reaction was below 0.5% (v/v). At T0 acetonitrile was added before adding the compound. All experiments were performed with samples in duplicate.
Background: Liver microsomes are a subcellular fraction often used to study metabolism.

The target of series [2] is T1, FAAH (Mus musculus, UniProt O08914).
T1 sequence (O08914 1-579): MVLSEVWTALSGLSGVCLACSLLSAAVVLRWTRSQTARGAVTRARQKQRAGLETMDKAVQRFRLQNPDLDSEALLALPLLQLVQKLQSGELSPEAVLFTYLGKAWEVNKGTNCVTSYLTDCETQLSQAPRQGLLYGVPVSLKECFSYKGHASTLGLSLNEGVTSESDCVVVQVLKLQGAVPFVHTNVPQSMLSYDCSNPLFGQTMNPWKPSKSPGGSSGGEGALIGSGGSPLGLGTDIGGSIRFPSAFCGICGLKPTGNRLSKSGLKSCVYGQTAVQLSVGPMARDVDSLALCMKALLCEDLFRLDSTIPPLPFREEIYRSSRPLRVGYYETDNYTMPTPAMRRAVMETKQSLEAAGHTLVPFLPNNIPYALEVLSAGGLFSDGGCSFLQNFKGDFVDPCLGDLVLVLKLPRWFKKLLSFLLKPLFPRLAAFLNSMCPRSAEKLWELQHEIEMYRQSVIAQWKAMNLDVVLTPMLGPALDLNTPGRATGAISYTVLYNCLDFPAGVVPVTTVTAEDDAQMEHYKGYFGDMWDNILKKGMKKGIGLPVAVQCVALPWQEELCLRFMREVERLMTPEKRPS
The series is described as follows: In vitro/ex vivo FAAH activity determination in liver after intra-tracheal instillation. Also noted: Liver and brain fragments were removed and processed for enzymatic activity determination; from tissue; host or cells: mouse liver fragment homogenate; species or system male NMRI mice. As to conditions: remaining enzymatic activity vs controls, 1 mg/kg intra-tracheal instillation, sacrificed after 8 h. The procedure:
(§1) To evaluate the selectivity of test compounds in inhibiting FAAH activity, male NMRI mice were administrated following instillation with 1 mg/kg compound and were sacrificed after 8 h treatment. Liver and brain fragments were removed and processed for enzymatic activity determination.
(§2) FAAH activity was measured as the amount of ^3H-ethanolamine formed, by liquid scintillation counting, from the hydrolysis of the substrate anandamide (AEA, labeled with ^3H on the ethanolamine part of the molecule). The percentage of remaining enzymatic activity was calculated in respect to controls and after blank subtraction. Therefore, a low value for the test compounds indicates a strong inhibitor.
(§3) Male NMRI mice (body weight range: 25-35 g) were obtained from Harlan Laboratories (Barcelona, Spain). Animals were kept 10 per cage, under controlled environmental conditions (12 hr light [8 am]/12 hr dark [8 pm]cycle; room temperature 22±1° C.). Food and tap water were allowed ad libitum. Animals were habituated to the animal facilities at least for a week prior to experiments. The experiments were all carried out during daylight hours.
(§4) Animals were fasted overnight before administration of compounds. […] After administration the animals were given atipamezole (1 mg/kg) to reverse the sedative and analgesic effects induced by the anaesthesia.
(§5) Fifteen minutes before sacrifice, animals were anesthetized with pentobarbital 60 mg/kg administrated intra-peritoneally. The brain (without cerebellum) and a fragment of liver were collected into plastic vials containing membrane buffer (3 mM MgCl2, 1 mM EDTA, 50 mM Tris HCl, pH 7.4). Glass beads (2.5 mm BioSpec Products, Bartlesville, Okla., USA) were added to the vials containing the brain and liver tissues. Tissues were stored at −20° C. until analysis.
(§6) Anandamide [ethanolamine-1-^3H-] was obtained from American Radiochemicals—with a specific activity of 60 Ci/mmol. All other reagents were obtained from Sigma-Aldrich. Optiphase Supermix was obtained from Perkin Elmer.
(§7) Brain and liver tissues were thawed and homogenized in 10 volumes of membrane buffer (3 mM MgCl2, 1 mM EDTA, 50 mM Tris HCl, pH 7.4) with homogenizer Precellys 24 Dual Tissue Homogenizer (Bertin Technologies) for 2 cycles of 5 sec (5000 rpm).
(§8) Total protein in the tissue homogenates was determined with the BioRad Protein Assay (BioRad) using a standard curve of BSA ([…]). Tissue homogenates were diluted to appropriate concentration for enzymatic determination in assay buffer (1 mM EDTA, 10 mM Tris HCl, pH 7.6).
(§9) Reaction mix (total volume 200 μL) contained 2 μM AEA (2 μM AEA+5 nM ^3H-AEA), 0.1% fatty acid free BSA, 15 μg (brain) or 5 μg (liver) protein, in assay buffer (1 mM EDTA, 10 mM Tris pH 7.6).
(§10) The test compound was used at a level of 1 mg/kg protein. After 15 minutes pre-incubation at 37° C. of the protein sample, reaction was started by the addition of the substrate solution (cold AEA+radiolabelled AEA+BSA). Reaction was carried out for 12 minutes for brain and liver tissues. Reaction was terminated by addition of 400 μL chloroform:methanol (1:1, v/v) solution. Reaction samples were vortex twice, left on ice for 5 minutes and then centrifuged in the microfuge for 7 minutes, 7000 rpm. 200 μL of the obtained supernatants were added to […] Optiphase Supermix scintillation cocktail previously distributed in 24-well plates.
(§11) Counts per minute (cpm) were determined in a Microbeta TriLux scintillation counter. In each assay blank samples (without protein) were prepared.

Series [3] has as its target T1, FAAH. The experiment in a line: In vitro/ex vivo FAAH activity determination in brain after intra-tracheal instillation. More on the design: Liver and brain fragments were removed and processed for enzymatic activity determination; from tissue; species or system male NMRI mice. The settings on record: remaining enzymatic activity vs controls, 1 mg/kg intra-tracheal instillation, sacrificed after 8 h. As to the method:
as §1, §2, §3, §4, §5, §6, §7, §8, §9, §10, §11

Structures can show the parent of a compound that is named as a salt.

`COc1cc(CN2CCC(N(C)C(=O)n3cnc(-c4ccc(OS(N)(=O)=O)cc4)c3)CC2)cc(OC)c1` [Example 8, 4-(1-((1-(3,5-dimethoxybenzyl)piperidin-4-yl)(methyl)carbamoyl)-1H-imidazol-4-yl)phenyl sulfamate hydrochloride]: in series [1] (hydrochloride), the “Control (% remain)” value worked out at 93.2 % remain and the “CYP+ (% remain)” value was found to be 25.2 % remain. Also, in series [2] (hydrochloride, 1 mg/kg), the “FAAH Activity - Liver itc (% C)” value is given as 5.4 % C. The “FAAH Activity - Brain itc (% C)” value in series [3] (hydrochloride, 1 mg/kg) was found to be 97.6 % C.
On to `COc1cc(CN2CCC(N(C)C(=O)n3cnc(-c4cccc(OS(N)(=O)=O)c4)c3)CC2)cc(OC)c1.Cl` [Example 9, 3-(1-((1-(3,5-dimethoxybenzyl)piperidin-4-yl)(methyl)carbamoyl)-1H-imidazol-4-yl)phenyl sulfamate hydrochloride], for which, in series [1], the “Control (% remain)” value is 102.5 % remain and the “CYP+ (% remain)” value came out at 62.8 % remain. Further, the “FAAH Activity - Liver itc (% C)” value in series [2] came out at 3.9 % C. Also, the “FAAH Activity - Brain itc (% C)” value in series [3] was 107.2 % C.
Take `COc1cc(CN2CCC(N(C)C(=O)n3cnc(-c4cccc(OS(N)(=O)=O)c4)c3)CC2)ccc1F` [Example 10, 3-(1-((1-(4-fluoro-3-methoxybenzyl)piperidin-4-yl)(methyl)carbamoyl)-1H-imidazol-4-yl)phenyl sulfamate hydrochloride]: in series [1], the “Control (% remain)” value stood at 100.0 % remain and the “CYP+ (% remain)” value is given as 5.8 % remain. Moreover, in series [2], the “FAAH Activity - Liver itc (% C)” value amounted to 3.2 % C. Also, in series [3], the “FAAH Activity - Brain itc (% C)” value is 113.4 % C.
`COc1cccc(CN2CCC(N(C)C(=O)n3cnc(-c4cccc(OS(N)(=O)=O)c4)c3)CC2)c1.Cl` [Example 11, 3-(1-((1-(3-methoxybenzyl)piperidin-4-yl)(methyl)carbamoyl)-1H-imidazol-4-yl)phenyl sulfamate hydrochloride]: in series [1], the “Control (% remain)” value came out at 100.0 % remain and the “CYP+ (% remain)” value is reported as 5.9 % remain. Besides, in series [2], the “FAAH Activity - Liver itc (% C)” value came to 4.4 % C. Moreover, in series [3], the “FAAH Activity - Brain itc (% C)” value is on record as 84.2 % C.
`COc1cc(CN2CCC(N(C)C(=O)n3cnc(-c4ccc(OS(N)(=O)=O)cc4)c3)CC2)ccc1F` [Example 12, 4-(1-((1-(4-fluoro-3-methoxybenzyl)piperidin-4-yl)(methyl)carbamoyl)-1 H-imidazol-4-yl)phenyl sulfamate oxalate]: in series [1], the “Control (% remain)” value is given as 106.2 % remain and the “CYP+ (% remain)” value worked out at 7.9 % remain. Besides, the “FAAH Activity - Liver itc (% C)” value in series [2] is recorded as 3.8 % C. Besides, the “FAAH Activity - Brain itc (% C)” value in series [3] stood at 108.7 % C.
Turning to `COc1cccc(CN2CCC(N(C)C(=O)n3cnc(-c4ccc(OS(N)(=O)=O)cc4)c3)CC2)c1` [Example 14, 4-(1-((1-(3-methoxybenzyl)piperidin-4-yl)(methyl)carbamoyl)-1H-imidazol-4-yl)phenyl sulfamate hydrochloride], in series [1], the “Control (% remain)” value stood at 100.9 % remain and the “CYP+ (% remain)” value is on record as 68.6 % remain. Besides, the “FAAH Activity - Liver itc (% C)” value in series [2] is 6.0 % C. Further, the “FAAH Activity - Brain itc (% C)” value in series [3] worked out at 89.3 % C.
Taken in the same sequence, the figures for `CN(C(=O)n1cnc(-c2cccc(OS(N)(=O)=O)c2)c1)C1CCN(c2ccc(O)cc2)CC1` [Example 15, 3-(1-((1-(4-hydroxyphenyl)piperidin-4-yl)(methyl)carbamoyl)-1H-imidazol-4-yl)phenyl sulfamate hydrochloride] were 94.4 % remain, 87.1 % remain, 3.0 % C and 91.1 % C.
For the compound `CN(C(=O)n1cnc(-c2cccc(NC(N)=O)c2)c1)C1CCN(Cc2ccccc2)CC1` [Example 16, N-(1-benzylpiperidin-4-yl)-N-methyl-4-(3-ureidophenyl)-1H-imidazole-1-carboxamide hydrochloride], in series [1], the “Control (% remain)” value came out at 101.4 % remain and the “CYP+ (% remain)” value is listed as 17.0 % remain. The “FAAH Activity - Liver itc (% C)” value in series [2] (hydrochloride, 1 mg/kg) stood at 4.5 % C. Also, in series [3] (hydrochloride, 1 mg/kg), the “FAAH Activity - Brain itc (% C)” value was 96.9 % C.
On to `CN(C(=O)n1cnc(-c2cccc(NC(N)=O)c2)c1)C1CCN(Cc2ccc3c(c2)OCO3)CC1.Cl` [Example 18, N-(1-(benzo[d][1,3]dioxol-5-ylmethyl)piperidin-4-yl)-N-methyl-4-(3-ureidophenyl)-1H-imidazole-1-carboxamide hydrochloride], for which, in series [1], the “Control (% remain)” value is 97.6 % remain and the “CYP+ (% remain)” value worked out at 76.8 % remain. Moreover, the “FAAH Activity - Liver itc (% C)” value in series [2] was 3.4 % C. Further, in series [3], the “FAAH Activity - Brain itc (% C)” value was 93.3 % C.
As for `CN(C(=O)n1cnc(-c2cccc(NS(C)(=O)=O)c2)c1)C1CCN(c2ccc(O)cc2)CC1` [Example 24, N-(1-(4-hydroxyphenyl)piperidin-4-yl)-N-methyl-4-(3-(methylsulfonamido)phenyl)-1H-imidazole-1-carboxamide hydrochloride], in series [1], the “Control (% remain)” value stood at 91.5 % remain and the “CYP+ (% remain)” value was 76.2 % remain. In addition, the “FAAH Activity - Liver itc (% C)” value in series [2] amounted to 5.7 % C. In series [3], the “FAAH Activity - Brain itc (% C)” value is recorded as 92.6 % C.
As to `CN(C(=O)n1cnc(-c2cccc(NC(N)=O)c2)c1)C1CCN(c2ccc(O)cc2)CC1` [Example 25, N-(1-(4-hydroxyphenyl)piperidin-4-yl)-N-methyl-4-(3-ureidophenyl)-1 H-imidazole-1-carboxamide hydrochloride], in series [1], the “Control (% remain)” value came to 61.5 % remain and the “CYP+ (% remain)” value was determined as 49.1 % remain. Also, in series [2], the “FAAH Activity - Liver itc (% C)” value is recorded as 9.0 % C. Further, the “FAAH Activity - Brain itc (% C)” value in series [3] is 100.7 % C.
